Test results published in patent publication US10231954B2, “Neurodegenerative therapies” (LYTIX BIOPHARMA AS, priority 2014, dated 2019).
Where two headings read alike, the source gives them in different places.

Assays:
Assay type in all cases: biochemical
ROCK 2 = ROCK 2 (Homo sapiens, UniProt O75116); assay: Kinase profiling ROCK 2; settings: for remaining activity at 100 µM: read-out: residual kinase activity, ROCK 2
Description: (§1) Any value less that 25 is considered to be highly significant inhibition.

p38b MAPK = p38b MAPK (Homo sapiens, UniProt Q15759); assay: Kinase profiling p38b MAPK; settings: for remaining activity at 100 µM: read-out: residual kinase activity, p38b MAPK
p38b MAPK, sequence (Q15759 whole entry): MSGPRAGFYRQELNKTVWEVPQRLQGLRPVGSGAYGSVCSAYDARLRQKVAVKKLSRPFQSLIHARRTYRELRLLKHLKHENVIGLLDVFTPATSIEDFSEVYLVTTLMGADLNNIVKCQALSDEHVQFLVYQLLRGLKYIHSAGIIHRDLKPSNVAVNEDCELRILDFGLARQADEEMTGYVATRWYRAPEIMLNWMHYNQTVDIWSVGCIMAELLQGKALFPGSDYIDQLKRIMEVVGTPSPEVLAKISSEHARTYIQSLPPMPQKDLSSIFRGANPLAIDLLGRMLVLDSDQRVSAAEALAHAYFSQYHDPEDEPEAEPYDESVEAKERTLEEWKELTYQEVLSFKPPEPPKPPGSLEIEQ
Description: as §1

SmMLCK = SmMLCK (Homo sapiens, UniProt Q15746); assay: Kinase profiling SmMLCK; settings: 100 micromolar inhibitor concentration; 100 is no change; read-out: residual kinase activity, SmMLCK
SmMLCK, sequence (Q15746 923-1914): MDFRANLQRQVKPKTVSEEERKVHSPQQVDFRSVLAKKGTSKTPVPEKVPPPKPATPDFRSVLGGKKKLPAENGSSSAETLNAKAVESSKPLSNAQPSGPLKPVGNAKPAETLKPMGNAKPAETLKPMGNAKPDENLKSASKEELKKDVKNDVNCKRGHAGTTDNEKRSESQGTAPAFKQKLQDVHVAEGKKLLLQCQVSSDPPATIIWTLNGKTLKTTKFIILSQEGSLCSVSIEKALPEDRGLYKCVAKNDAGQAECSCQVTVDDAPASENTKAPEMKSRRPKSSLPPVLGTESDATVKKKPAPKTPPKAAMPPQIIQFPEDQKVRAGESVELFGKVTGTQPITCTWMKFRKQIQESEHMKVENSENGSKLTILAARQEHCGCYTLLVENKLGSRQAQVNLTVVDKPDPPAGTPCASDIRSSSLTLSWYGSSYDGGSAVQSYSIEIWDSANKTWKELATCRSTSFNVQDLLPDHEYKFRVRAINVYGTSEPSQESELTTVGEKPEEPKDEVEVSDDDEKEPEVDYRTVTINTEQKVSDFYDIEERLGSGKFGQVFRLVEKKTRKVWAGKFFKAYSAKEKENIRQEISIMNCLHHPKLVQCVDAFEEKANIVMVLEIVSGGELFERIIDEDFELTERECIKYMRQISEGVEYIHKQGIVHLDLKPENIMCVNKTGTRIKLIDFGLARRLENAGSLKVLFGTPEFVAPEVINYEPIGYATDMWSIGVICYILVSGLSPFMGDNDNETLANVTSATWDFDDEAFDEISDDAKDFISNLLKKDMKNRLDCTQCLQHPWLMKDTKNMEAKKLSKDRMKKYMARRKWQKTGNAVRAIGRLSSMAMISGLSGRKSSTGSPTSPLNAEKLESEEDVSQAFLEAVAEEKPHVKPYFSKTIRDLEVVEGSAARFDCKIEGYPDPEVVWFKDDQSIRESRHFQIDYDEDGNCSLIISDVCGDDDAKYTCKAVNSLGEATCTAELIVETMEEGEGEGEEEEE

p38a MAPK = p38a MAPK (Homo sapiens, UniProt Q16539); assay: Kinase profiling p38a MAPK; settings: for remaining activity at 100 µM: read-out: residual kinase activity, p38a MAPK
p38a MAPK, sequence (Q16539 whole entry): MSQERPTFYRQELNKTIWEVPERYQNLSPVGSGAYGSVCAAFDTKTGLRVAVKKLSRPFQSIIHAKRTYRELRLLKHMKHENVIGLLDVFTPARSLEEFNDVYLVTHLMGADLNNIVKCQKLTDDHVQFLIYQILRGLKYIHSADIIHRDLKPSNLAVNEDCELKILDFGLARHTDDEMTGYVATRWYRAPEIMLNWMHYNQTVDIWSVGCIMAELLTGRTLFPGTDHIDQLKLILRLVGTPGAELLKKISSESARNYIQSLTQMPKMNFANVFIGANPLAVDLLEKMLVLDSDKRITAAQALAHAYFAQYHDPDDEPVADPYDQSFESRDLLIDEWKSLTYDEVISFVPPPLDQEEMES
Description: as §1

SYK = SYK (Homo sapiens, UniProt P43405); assay: Kinase profiling SYK; settings: read-out: residual kinase activity, SYK
Description: as §1

MARK3 = MARK3 (Homo sapiens, UniProt P27448); assay: Kinase profiling MARK3; settings: read-out: residual kinase activity, MARK3
Description: as §1

IGF-1R = IGF-1R (Homo sapiens, UniProt P08069); assay: Kinase profiling IGF-1R; settings: read-out: residual kinase activity, IGF-1R
Description: as §1

TBK1 = biological target: T1, TBK1 (Homo sapiens, UniProt Q9UHD2); assay: Kinase profiling TBK1; settings: read-out: residual kinase activity, TBK1
T1 sequence (Q9UHD2 1-729): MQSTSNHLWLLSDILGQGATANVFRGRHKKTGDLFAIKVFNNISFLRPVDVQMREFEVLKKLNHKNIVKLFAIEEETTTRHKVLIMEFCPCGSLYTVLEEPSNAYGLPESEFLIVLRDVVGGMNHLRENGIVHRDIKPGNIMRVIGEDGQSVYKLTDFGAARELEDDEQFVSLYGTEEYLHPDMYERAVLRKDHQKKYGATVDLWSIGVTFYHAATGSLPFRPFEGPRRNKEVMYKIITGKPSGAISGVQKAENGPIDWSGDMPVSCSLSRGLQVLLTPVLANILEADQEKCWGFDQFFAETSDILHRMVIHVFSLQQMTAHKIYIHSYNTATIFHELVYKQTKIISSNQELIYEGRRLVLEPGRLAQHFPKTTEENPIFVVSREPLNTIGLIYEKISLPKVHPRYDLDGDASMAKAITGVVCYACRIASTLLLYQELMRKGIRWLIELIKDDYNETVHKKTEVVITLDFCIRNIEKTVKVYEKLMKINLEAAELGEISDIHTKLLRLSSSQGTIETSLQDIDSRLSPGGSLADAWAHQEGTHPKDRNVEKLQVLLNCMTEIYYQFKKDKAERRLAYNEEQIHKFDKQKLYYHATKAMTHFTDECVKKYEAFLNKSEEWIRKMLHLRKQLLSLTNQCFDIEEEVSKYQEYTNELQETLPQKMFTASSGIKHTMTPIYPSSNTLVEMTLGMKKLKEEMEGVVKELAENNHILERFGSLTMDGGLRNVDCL
Description: as §1

MKK1 = MKK1 (Homo sapiens, UniProt Q02750); assay: Kinase profiling MKK1; settings: for remaining activity at 100 µM: read-out: residual kinase activity, MKK1
MKK1, sequence (Q02750 whole entry, species assumed): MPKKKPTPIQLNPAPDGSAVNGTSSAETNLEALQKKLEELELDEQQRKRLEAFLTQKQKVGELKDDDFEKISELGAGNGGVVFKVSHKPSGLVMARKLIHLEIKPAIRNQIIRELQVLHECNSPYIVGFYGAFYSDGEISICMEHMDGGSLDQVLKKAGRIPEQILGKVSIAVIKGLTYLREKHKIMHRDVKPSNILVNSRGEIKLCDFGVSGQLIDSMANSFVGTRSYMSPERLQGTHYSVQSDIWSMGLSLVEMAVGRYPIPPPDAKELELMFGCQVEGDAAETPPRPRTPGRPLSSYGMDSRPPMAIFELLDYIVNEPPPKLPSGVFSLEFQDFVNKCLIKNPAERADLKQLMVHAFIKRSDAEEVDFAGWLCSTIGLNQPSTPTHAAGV
Description: as §1

Src = Src (Homo sapiens, UniProt P12931); assay: Kinase profiling Src; settings: read-out: residual kinase activity, Src
Description: as §1

PKCz = biological target: T2, PKCz (Homo sapiens, UniProt Q05513); assay: Kinase profiling PKCz; settings: for remaining activity at 100 µM: read-out: residual kinase activity, PKCz
T2 sequence (Q05513 1-592): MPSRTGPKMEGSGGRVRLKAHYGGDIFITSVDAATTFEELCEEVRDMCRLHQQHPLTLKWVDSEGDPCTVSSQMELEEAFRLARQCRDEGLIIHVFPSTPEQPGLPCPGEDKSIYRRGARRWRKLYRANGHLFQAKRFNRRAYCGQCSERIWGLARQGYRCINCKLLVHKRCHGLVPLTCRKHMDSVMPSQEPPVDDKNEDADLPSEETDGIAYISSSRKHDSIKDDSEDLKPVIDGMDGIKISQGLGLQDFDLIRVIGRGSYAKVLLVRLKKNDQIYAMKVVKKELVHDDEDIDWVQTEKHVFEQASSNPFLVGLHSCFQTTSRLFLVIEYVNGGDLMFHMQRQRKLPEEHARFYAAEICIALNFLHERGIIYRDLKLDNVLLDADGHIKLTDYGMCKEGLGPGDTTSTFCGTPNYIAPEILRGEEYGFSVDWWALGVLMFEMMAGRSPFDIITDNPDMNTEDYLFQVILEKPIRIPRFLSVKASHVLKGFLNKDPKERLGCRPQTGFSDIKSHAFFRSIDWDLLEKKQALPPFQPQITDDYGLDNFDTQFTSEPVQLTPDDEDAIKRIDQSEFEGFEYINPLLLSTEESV
Description: as §1

PKA = PKA (Homo sapiens, UniProt P17612); assay: Kinase profiling PKA; settings: for remaining activity at 100 µM: read-out: residual kinase activity, PKA
Description: as §1

PAK4 = PAK4 (Homo sapiens, UniProt O96013); assay: Kinase profiling PAK4; settings: read-out: residual kinase activity, PAK4
PAK4, sequence (O96013 whole entry, species assumed): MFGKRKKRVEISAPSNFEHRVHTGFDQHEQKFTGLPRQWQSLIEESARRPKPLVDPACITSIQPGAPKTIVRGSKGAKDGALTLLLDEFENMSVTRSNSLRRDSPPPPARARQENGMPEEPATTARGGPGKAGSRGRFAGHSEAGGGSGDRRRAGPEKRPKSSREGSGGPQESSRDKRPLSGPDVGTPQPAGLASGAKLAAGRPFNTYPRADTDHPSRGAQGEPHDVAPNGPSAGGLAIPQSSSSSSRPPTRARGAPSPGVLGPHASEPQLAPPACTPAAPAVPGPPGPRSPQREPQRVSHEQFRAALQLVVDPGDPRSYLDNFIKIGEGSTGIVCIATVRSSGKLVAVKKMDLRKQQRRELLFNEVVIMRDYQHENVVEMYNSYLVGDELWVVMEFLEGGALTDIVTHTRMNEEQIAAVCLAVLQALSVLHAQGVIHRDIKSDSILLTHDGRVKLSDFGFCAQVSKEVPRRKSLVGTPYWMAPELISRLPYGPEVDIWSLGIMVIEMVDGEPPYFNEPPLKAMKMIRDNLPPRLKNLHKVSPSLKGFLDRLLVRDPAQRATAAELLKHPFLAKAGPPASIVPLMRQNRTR
Description: as §1

MKK2 = MKK2 (Homo sapiens, UniProt P36507); assay: Kinase profiling MKK2; settings: for remaining activity at 100 µM: read-out: residual kinase activity, MKK2
Description: as §1

PKCa = PKCa (Homo sapiens, UniProt P17252); assay: Kinase profiling PKCa; settings: for remaining activity at 100 µM: read-out: residual kinase activity, PKCa
Description: as §1

VEG-FR = assay: Kinase profiling VEG-FR; settings: 100 micromolar inhibitor concentration; 100 is no change
Description: as §1

PRK2 = PRK2 (Homo sapiens, UniProt Q16513); assay: Kinase profiling PRK2; settings: for remaining activity at 100 µM: read-out: residual kinase activity, PRK2
PRK2, sequence (Q16513 whole entry, species assumed): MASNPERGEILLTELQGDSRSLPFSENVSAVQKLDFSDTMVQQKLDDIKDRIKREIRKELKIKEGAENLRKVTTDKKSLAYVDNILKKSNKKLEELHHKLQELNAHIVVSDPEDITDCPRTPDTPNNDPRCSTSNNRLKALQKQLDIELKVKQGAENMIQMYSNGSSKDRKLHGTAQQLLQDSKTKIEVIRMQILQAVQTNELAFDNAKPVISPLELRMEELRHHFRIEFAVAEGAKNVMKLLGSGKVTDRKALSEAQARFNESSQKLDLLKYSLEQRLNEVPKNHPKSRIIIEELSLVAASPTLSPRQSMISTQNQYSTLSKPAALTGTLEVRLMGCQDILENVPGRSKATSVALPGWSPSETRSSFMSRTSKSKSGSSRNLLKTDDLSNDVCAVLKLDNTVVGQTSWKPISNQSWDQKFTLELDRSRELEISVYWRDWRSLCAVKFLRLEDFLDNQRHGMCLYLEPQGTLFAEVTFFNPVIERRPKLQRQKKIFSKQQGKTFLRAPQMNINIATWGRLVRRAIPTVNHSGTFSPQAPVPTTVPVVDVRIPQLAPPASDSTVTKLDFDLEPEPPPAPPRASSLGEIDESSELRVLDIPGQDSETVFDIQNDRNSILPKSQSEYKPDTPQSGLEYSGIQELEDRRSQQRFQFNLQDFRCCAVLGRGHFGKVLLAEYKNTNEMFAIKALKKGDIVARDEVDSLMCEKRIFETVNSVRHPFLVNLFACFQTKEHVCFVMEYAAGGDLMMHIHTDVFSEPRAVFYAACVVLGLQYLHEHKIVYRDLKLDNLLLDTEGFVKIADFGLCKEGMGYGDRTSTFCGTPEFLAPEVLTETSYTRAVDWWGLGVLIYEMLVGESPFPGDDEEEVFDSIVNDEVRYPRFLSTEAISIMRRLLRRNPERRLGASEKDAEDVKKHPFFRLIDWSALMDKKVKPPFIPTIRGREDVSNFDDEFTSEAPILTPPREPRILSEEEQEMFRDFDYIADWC
Description: as §1

Lck = Lck (Homo sapiens, UniProt P06239); assay: Kinase profiling Lck; settings: read-out: residual kinase activity, Lck
Lck, sequence (P06239 whole entry, species assumed): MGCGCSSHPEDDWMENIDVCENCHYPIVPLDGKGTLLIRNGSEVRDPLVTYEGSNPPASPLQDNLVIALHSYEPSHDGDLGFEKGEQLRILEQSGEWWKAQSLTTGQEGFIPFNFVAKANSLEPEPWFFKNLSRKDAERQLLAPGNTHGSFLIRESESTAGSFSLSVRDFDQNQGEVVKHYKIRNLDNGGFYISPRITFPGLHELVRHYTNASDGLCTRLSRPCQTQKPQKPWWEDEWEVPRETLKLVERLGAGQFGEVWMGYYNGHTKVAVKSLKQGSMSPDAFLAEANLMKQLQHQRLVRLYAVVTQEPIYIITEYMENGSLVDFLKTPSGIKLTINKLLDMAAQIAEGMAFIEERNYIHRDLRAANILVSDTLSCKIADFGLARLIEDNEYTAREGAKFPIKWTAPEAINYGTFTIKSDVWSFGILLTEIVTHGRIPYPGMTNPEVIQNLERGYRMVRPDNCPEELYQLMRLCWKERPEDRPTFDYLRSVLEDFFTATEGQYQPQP
Description: as §1

CAMKKb = CAMKKb (Homo sapiens, UniProt Q96RR4); assay: Kinase profiling CAMKKb; settings: read-out: residual kinase activity, CAMKKb
CAMKKb, sequence (Q96RR4 whole entry, species assumed): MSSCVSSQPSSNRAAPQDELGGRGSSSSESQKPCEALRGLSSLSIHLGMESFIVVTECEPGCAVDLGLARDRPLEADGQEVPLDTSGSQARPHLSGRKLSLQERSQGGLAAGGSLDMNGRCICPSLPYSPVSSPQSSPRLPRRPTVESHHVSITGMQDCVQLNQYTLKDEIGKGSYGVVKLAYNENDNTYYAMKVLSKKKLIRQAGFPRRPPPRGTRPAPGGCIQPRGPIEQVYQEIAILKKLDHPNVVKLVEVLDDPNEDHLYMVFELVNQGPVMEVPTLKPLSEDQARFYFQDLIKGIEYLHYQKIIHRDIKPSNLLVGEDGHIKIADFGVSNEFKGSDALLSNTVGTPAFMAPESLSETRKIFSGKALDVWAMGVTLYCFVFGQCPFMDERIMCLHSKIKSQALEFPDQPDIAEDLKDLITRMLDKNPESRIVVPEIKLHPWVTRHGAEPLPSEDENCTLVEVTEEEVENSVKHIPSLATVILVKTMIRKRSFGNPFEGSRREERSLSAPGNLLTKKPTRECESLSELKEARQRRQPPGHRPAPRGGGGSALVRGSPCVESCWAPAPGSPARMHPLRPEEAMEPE
Description: as §1

[1] = 100 micromolar inhibitor concentration, 100 is no change

Work on CC(=O)Nc1nc2cc(O)ccc2s1 [Compound 01-66, N-(5-hydroxybenzo[d]thiazol-2-yl)acetamide] yielded a remaining activity at 100 µM (ROCK 2) of 56%, a remaining activity at 100 µM (p38b MAPK) of 92% and a remaining activity at 100 µM (SmMLCK) of 58%. It also gave a remaining activity at 100 µM (p38a MAPK) of 84%, a remaining activity at 100 µM (SYK) of 82% and a remaining activity at 100 µM (MARK3) of 34%. The remaining activity at 100 µM (IGF-1R) was 26%, the remaining activity at 100 µM (TBK1) was 60% and the remaining activity at 100 µM (MKK1) was 31%. For the same molecule, the remaining activity at 100 µM (Src) was 45%, the remaining activity at 100 µM (PKCz) was 98% and the remaining activity at 100 µM (PKA) was 95%. The remaining activity at 100 µM (PAK4) was 66%, the remaining activity at 100 µM (MKK2) was 42% and the remaining activity at 100 µM (PKCa) was 82%. The “residual kinase activity, VEG-FR” value (VEG-FR) was 24, the remaining activity at 100 µM (PRK2) was 67% and the remaining activity at 100 µM (Lck) was 69%. For the same molecule, the remaining activity at 100 µM (CAMKKb) was 44%.
With CC(=O)Nc1nc2ccc(O)cc2s1 [Compound 01-71] the remaining activity at 100 µM (ROCK 2; [1]) was 34%, the remaining activity at 100 µM (p38b MAPK; [1]) was 106% and the remaining activity at 100 µM (SmMLCK) was 39%. For the same molecule, the remaining activity at 100 µM (p38a MAPK; [1]) was 86%, the remaining activity at 100 µM (SYK; [1]) was 71% and the remaining activity at 100 µM (MARK3; [1]) was 46%. The remaining activity at 100 µM (IGF-1R; [1]) was 18%, the remaining activity at 100 µM (TBK1; [1]) was 43% and the remaining activity at 100 µM (MKK1; [1]) was 35%. It also gave a remaining activity at 100 µM (Src; [1]) of 57%, a remaining activity at 100 µM (PKCz; [1]) of 74% and a remaining activity at 100 µM (PKA; [1]) of 70%. For the same molecule, the remaining activity at 100 µM (PAK4; [1]) was 51%, the remaining activity at 100 µM (MKK2; [1]) was 48% and the remaining activity at 100 µM (PKCa; [1]) was 77%. For the same molecule, the “residual kinase activity, VEG-FR” value (VEG-FR) was 9, the remaining activity at 100 µM (PRK2; [1]) was 36% and the remaining activity at 100 µM (Lck; [1]) was 192%. The remaining activity at 100 µM (CAMKKb; [1]) was 57%.
Work on CC(=O)Nc1nc2ccc(C(F)(F)F)cc2s1 [Compound 01-90] yielded a remaining activity at 100 µM (ROCK 2; [1]) of 80%, a remaining activity at 100 µM (p38b MAPK; [1]) of 82% and a remaining activity at 100 µM (SmMLCK) of 80%. The remaining activity at 100 µM (p38a MAPK; [1]) was 106%, the remaining activity at 100 µM (SYK; [1]) was 100% and the remaining activity at 100 µM (MARK3; [1]) was 61%. It also gave a remaining activity at 100 µM (IGF-1R; [1]) of 84%, a remaining activity at 100 µM (TBK1; [1]) of 83% and a remaining activity at 100 µM (MKK1; [1]) of 80%. The remaining activity at 100 µM (Src; [1]) was 63%, the remaining activity at 100 µM (PKCz; [1]) was 81% and the remaining activity at 100 µM (PKA; [1]) was 87%. The remaining activity at 100 µM (PAK4; [1]) was 67%, the remaining activity at 100 µM (MKK2; [1]) was 73% and the remaining activity at 100 µM (PKCa; [1]) was 101%. The “residual kinase activity, VEG-FR” value (VEG-FR) was 8, the remaining activity at 100 µM (PRK2; [1]) was 94% and the remaining activity at 100 µM (Lck; [1]) was 53%. The remaining activity at 100 µM (CAMKKb; [1]) was 29%.
CC(=O)Nc1nc2ccc(C#N)cc2s1 [Compound 01-94] showed a remaining activity at 100 µM (ROCK 2; [1]) of 69%, a remaining activity at 100 µM (p38b MAPK; [1]) of 100% and a remaining activity at 100 µM (SmMLCK) of 54%. For the same molecule, the remaining activity at 100 µM (p38a MAPK; [1]) was 102%, the remaining activity at 100 µM (SYK; [1]) was 86% and the remaining activity at 100 µM (MARK3; [1]) was 50%. It also gave a remaining activity at 100 µM (IGF-1R; [1]) of 78%, a remaining activity at 100 µM (TBK1; [1]) of 41% and a remaining activity at 100 µM (MKK1; [1]) of 34%. For the same molecule, the remaining activity at 100 µM (Src; [1]) was 94%, the remaining activity at 100 µM (PKCz; [1]) was 80% and the remaining activity at 100 µM (PKA; [1]) was 93%. For the same molecule, the remaining activity at 100 µM (PAK4; [1]) was 34%, the remaining activity at 100 µM (MKK2; [1]) was 54% and the remaining activity at 100 µM (PKCa; [1]) was 93%. For the same molecule, the “residual kinase activity, VEG-FR” value (VEG-FR) was 11, the remaining activity at 100 µM (PRK2; [1]) was 70% and the remaining activity at 100 µM (Lck; [1]) was 168%. For the same molecule, the remaining activity at 100 µM (CAMKKb; [1]) was 35%.
CC(=O)Nc1cccc(C(=O)Nc2nc3cc(O)ccc3s2)c1 [MS:LY-2-89] was tested, and the “residual kinase activity, ROCK 2” value (ROCK 2; [1]) was 11, the “residual kinase activity, p38b MAPK” value (p38b MAPK; [1]) was 17 and the “residual kinase activity, p38a MAPK” value (p38a MAPK; [1]) was 18. For the same molecule, the “residual kinase activity, MKK1” value (MKK1; [1]) was 56, the “residual kinase activity, PKCz” value (PKCz; [1]) was 80 and the “residual kinase activity, PKA” value (PKA; [1]) was 87. The “residual kinase activity, MKK2” value (MKK2; [1]) was 47, the “residual kinase activity, PKCa” value (PKCa; [1]) was 48 and the “residual kinase activity, PRK2” value (PRK2; [1]) was 44.
